This note sets out measurements from ChEMBL document CHEMBL2203217, “Prohormone-substrate peptide sequence recognition by peptidylglycine α-amidating monooxygenase and its reflection in increased glycolate inhibitor potency” (Bioorg Med Chem Lett, 2012).

The term IC50 denotes the concentration at which inhibition is half-maximal. Read a low IC50 as higher potency.

Test [1] has as its target T1, Peptidyl-glycine alpha-amidating monooxygenase (Homo sapiens, UniProt P19021).
T1 sequence (P19021 whole entry): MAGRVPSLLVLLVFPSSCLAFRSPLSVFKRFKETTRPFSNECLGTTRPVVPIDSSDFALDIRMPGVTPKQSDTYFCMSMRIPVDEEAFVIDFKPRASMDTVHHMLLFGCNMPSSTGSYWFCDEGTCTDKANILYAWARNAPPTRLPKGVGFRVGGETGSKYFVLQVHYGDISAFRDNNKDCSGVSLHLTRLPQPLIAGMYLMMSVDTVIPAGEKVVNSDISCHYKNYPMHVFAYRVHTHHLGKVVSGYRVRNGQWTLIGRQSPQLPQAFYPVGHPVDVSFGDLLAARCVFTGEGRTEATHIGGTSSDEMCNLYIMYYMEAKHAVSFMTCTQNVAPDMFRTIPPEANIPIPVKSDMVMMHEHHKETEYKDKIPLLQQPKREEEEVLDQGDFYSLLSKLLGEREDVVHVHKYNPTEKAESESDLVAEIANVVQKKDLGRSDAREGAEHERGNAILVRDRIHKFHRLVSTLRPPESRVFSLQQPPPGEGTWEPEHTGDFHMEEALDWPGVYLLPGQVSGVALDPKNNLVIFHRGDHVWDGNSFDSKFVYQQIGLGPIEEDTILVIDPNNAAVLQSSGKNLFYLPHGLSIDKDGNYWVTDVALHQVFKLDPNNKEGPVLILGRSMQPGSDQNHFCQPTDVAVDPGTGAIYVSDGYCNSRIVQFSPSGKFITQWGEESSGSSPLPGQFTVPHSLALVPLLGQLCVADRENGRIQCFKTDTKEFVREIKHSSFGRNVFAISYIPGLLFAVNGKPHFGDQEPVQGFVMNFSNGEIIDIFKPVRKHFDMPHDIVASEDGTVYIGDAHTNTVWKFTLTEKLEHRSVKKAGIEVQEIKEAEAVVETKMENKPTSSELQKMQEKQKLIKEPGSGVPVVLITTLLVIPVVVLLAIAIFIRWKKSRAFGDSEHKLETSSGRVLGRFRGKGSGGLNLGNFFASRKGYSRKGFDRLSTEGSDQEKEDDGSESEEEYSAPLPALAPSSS
Put plainly: Competitive inhibition of secreted PAM in human DMS53 cell culture medium using as(R)-Tyr-(S)-Val-Gly as substrate after 2 hrs by HPLC analysis. Also on record: species or system DMS-53.

Test [2] addresses T1, Peptidyl-glycine alpha-amidating monooxygenase. In words: Competitive inhibition of PAM in human DMS53 cells using as(R)-Tyr-(S)-Val-Gly as substrate after 2 hrs by HPLC analysis. It is filed as cell-based, DMS-53.

Regarding `C[C@H](NC(=O)CN)C(=O)N1CCC[C@H]1C(=O)OCC(=O)O`, the results for the IC50 in test [1] and in test [2] were 1100 µM and 980 µM, respectively.

On to `CC(=O)OCC(=O)O`, for which the IC50 in test [1] and in test [2] was 1100 µM in each case.

Consider `C[C@H](NC(=O)CN)C(=O)N[C@@H](Cc1ccccc1)C(=O)OCC(=O)O`, for which the half-maximal inhibitory concentration (IC50) was 160 µM in test [1] and 560 µM in test [2].

On to `CC(=O)N[C@@H](CC(C)C)C(=O)NCC(=O)OCC(=O)O`, for which the 50% inhibitory concentration (IC50) in test [1] is 200 µM; in test [2] it was 120 µM.

In the case of `CC(=O)NCC(=O)OCC(=O)O`, the values for the IC50 in test [1] and in test [2] were 1800 µM and 210 µM, respectively.
